Measurements published in patent US8128963B2, “Methods for treating ischemic disorders using carbon monoxide” (The Trustees of Columbia University in the City Of New York, priority 1999, dated 2012).
“Also recorded” adds a separate entry of the source.

Tests used:
acute ischemic stroke = conditions: within 7 hours of stroke onset; cited from earlier work
stroke = conditions: within 2 hours of stroke; cited from earlier work
intracerebral hemorrhage = assay type: in vivo, mouse
Method: The hemoglobin content of brains subjected to the experimental procedures below was quantified using a spectrophotometric assay as follows. Whole brain tissue was obtained from freshly euthanized control or experimental animals, and each brain was treated individually as follows. Distilled water (250 μl) was added to each brain, followed by homogenization, for 30 sec (Brinkman Instruments, Inc., Westbury, N.Y.), sonification on ice with a pulse ultrasonicator for 1 minute (SmithKline Corporation, Collegeville, Pa.), and centrifugation at 13,000 rpm for 30 minutes (Baxter Scientific Products, Deerfield, Ill.). After collecting the hemoglobin-containing supernatant, 80 μl of Drabkin's reagent (purchased from Sigma Diagnostics, St. Louis, Mo; K3Fe(CN)6 200 mg/L, KCN 50 mg/L, NaHCO3 1 g/L, pH 8.6 ^25) was added to a 20 μl aliquot and allowed to stand for 15 minutes. This reaction converts hemoglobin to cyanomethemoglobin, which has an absorbance peak at 540 nm, and whose concentration can then be assesses by the optical density of the solution at ≈550 nm wavelength ^26. To validate that the measured absorbance following these procedures reflects the amount of hemoglobin, known quantities of bovine erythrocyte hemoglobin (Sigma, St. Louis, Mo.) were analyzed using similar procedures alongside every brain tissue assay. As an additional measure, blood was obtained from control mice by cardiac puncture following anesthesia. Incremental aliquots of this blood were then added to freshly homogenized brain tissue obtained from untreated mice to generate a standard absorbance curve.
Focal cerebral ischemia was produced in animals by transient right middle cerebral artery occlusion using a method previously described in detail ^28,29. Briefly, a heat-blunted 12 or 13 mm 5-0 or 6-0 gauge nylon suture was passed into the right internal carotid artery to the level of the middle cerebral artery. After 45 minutes, the occluding suture was removed to reestablish perfusion. Immediately following removal of the occluding suture, animals received either intravenous tissue plasminogen activator (10 mg/kg in 0.2 ml normal saline solution, Stroke+rt-PA) or normal saline solution (Stroke+Saline) given by dorsal penile vein injection. At 24 hours, brain tissue was harvested immediately after rapid anesthetized decapitation. […] The other half of each brain was immersed in saline for an identical duration, and then subjected to the procedures described above for the spectrophotometric hemoglobin assay.
The degree of ICH was first scored visually by a blinded observer. […] Sections were inspected by a blinded observer and brains were given an ICH score from a graded scale based on maximal hemorrhage diameter seen on any of the sections [ICH score 0, no hemorrhage; 1, <1 mm; 2, 1-2 mm; 3, >2-3 mm; 4, >3 mm]. Slices from each brain were then pooled, homogenized, and then treated according to the procedures described above for the spectrophotometric hemoglobin assay.
Spectrophotometric hemoglobin assay and visual ICH score: ICH was quantified by a spectrophotometric-based assay which we have developed and validated ^11,12. In brief, mouse brains were homogenized, sonicated, centrifuged, and methemoglobin in the supernatants converted (using Drabkin's reagent) to cyanomethemoglobin, the concentration of which was assessed by measuring O.D. at 550 nm against a standard curve generated with known amounts of hemoglobin. […]

mouse model of stroke = assay: Mouse model of stroke, thrombolytic versus P-selectin antagonist; conditions: in vivo
Source text: The present invention provides for treatment of ischemic disorders by inhibiting the ability of the neutrophil, monocyte or other white blood cell to adhere properly. This may be accomplished removing the counter ligand, such as CD18. […] The endothelial cells on the surface of the vessels in the subject may also be a target for treatment. […] The present invention may be used in conjunction with a thrombolytic therapy to increase efficacy of such therapy or to enable lower doses of such therapy to be administered to the subject so as to reduce side effects of the thrombolytic therapy.

cross-linked fibrin = assay: Fibrin immunoblotting in stroke brain; assay type: in vivo, mouse; conditions: 300 μg/kg prior to stroke
Method: Fibrin immunoblotting/immunostaining. The accumulation of fibrin was measured following sacrifice (of fully heparinized animals) using immunoblotting/immunostaining procedures which have been recently described and validated ^9. Because fibrin is extremely insoluble, brain tissue extracts where prepared by plasmin digestion, then applied to a standard SDS-polyacrylamide gel for electrophoresis, followed by immunoblotting using a polyclonal rabbit anti-human antibody prepared to gamma-gamma chain dimers present in cross-linked fibrin which can detect murine fibrin, with relatively little cross-reactivity with fibrinogen ^10. Fibrin accumulation was reported as an ipsilateral to contralateral ratic. In additional experiments, brains were embedded in paraffin, sectioned, and immunostained using the same anti-fibrin antibody.

Factor IXa = biological target: T1, Factor IXa (Homo sapiens, UniProt P00740); assay: Procoagulant activity of the prepared Factor IXai; assay type: biochemical; conditions: final product
T1 construct: made in house
T1 sequence (P00740 227-461 limits assumed): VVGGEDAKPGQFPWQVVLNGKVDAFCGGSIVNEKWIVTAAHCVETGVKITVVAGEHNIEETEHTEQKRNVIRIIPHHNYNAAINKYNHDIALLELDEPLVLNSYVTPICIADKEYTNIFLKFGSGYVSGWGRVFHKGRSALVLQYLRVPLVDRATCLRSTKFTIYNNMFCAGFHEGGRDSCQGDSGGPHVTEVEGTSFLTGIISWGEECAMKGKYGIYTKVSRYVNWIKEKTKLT
T1 sequence (P00740 47-191 partner limits assumed): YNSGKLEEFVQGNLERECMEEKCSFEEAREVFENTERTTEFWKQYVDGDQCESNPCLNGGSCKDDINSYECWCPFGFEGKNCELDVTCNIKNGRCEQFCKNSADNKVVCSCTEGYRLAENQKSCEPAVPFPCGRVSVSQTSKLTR
Method: Preparation of Factor IXai ^13: Factor IXai was prepared by selectively modifying the active site histidine residue on Factor IXa, using dansyl-glu-gly-arg-chloromethylketone. Proplex was applied to a preparative column containing immobilized calcium-dependent monoclonal antibody to Factor IX. The column was washed, eluted with EDTA-containing buffer, and Factor IX in the eluate (confirmed as a single band on SDS-PAGE) was then activated by applying Factor XIa (incubating in the presence of CaCl2). Purified Factor IXa was reacted with a 100-fold molar excess of dansyl-glu-gly-arg chloromethylketone, and the mixture dialyzed. […] This material (Factor IXai) was then used for experiments following filtration (0.2 μm) and chromatography on DeToxi-gel columns, to remove any trace endotoxin contamination (in sample aliquots, there was no detectable lipopolysaccharide). IXai was subsequently frozen into aliquots at −80° C. until the time of use. For those experiments in which IXai was used, it was given as a single intravenous bolus at the indicated times and at the indicated doses.

[1] = test system: left circumflex coronary artery occlusion; conditions: dogs; cited from earlier work
Protime and APTT in mice = assay type: in vivo, mouse; conditions: 300 μg/kg, n=7
Source text: The potency of Factor IXai as an anticoagulant agent stems from the integral role of activated Factor IX in the coagulation cascade.

[2] = test system: platelet accumulation in ipsilateral hemisphere; assay: 111Indium-platelet accumulation in stroke; assay type: in vivo, mouse; conditions: 300 μg/kg prior to occlusion, vs vehicle
Method: ^111Indium-platelet studies: Platelet accumulation was determined using ^111Indium labeled platlets, collected and prepared as previously described ^8. Immediately prior to surgery, mice were given 5×10^6 111In-labeled-platelets intravenously; deposition was quantified after 24 hours by as ipsilateral cpm/contralateral cpm.

[3] = test system: mouse model of cerebral ischemia and reperfusion (stroke); assay type: in vivo
Method: In stroke and other ischemic disorders, there may be clinical benefit derived by lysing an existing thrombus, but there is also the potentially devastating complication of hemorrhage. In the current experiments, the mouse model of cerebral ischemia and reperfusion (stroke) was used. […]
Murine stroke model. Transient focal cerebral ischemia was induced in mice by intralumenal occlusion of the middle cerebral artery (45 minutes) and reperfusion (22 hrs) as previously reported ^7. Serial measurements of relative cerebral blood flow (CBF) were recorded via laser doppler flowmetry ^7, and infarct volumes (% ipsilateral hemisphere) determined by planimetric/volumetric analysis of triphenyl tetrazolium chloride (TTC)-stained serial cerebral sections ^7.
Preparation of Factor IXai ^13: Factor IXai was prepared by selectively modifying the active site histidine residue on Factor IXa, using dansyl-glu-gly-arg-chloromethylketone. Proplex was applied to a preparative column containing immobilized calcium-dependent monoclonal antibody to Factor IX. […] Purified Factor IXa was reacted with a 100-fold molar excess of dansyl-glu-gly-arg chloromethylketone, and the mixture dialyzed. […] IXai was subsequently frozen into aliquots at −80° C. until the time of use. For those experiments in which IXai was used, it was given as a single intravenous bolus at the indicated times and at the indicated doses.

[4] = 300 μg/kg i.v. just prior to surgery, 24 hours
[5] = Table II, Experimental group mean

rt-PA: recombinant human tissue plasminogen activator, Genentech
rate of hemorrhagic conversion (acute ischemic stroke): 7-20% | reduction of infarct size (stroke): up to 77% | increase of OD vs physiological saline solution (intracerebral hemorrhage; i.v. after reperfusion, 10 mg/kg): 1.8 fold | visual ICH score (intracerebral hemorrhage; stroke model, rt-PA after reperfusion): increase in the visual ICH score | hemorrhaging (mouse model of stroke): some visible hemorrhaging | stroke disorder (mouse model of stroke): improvement of the stroke disorder

Factor IXai: Factor IXa with active site histidine modified by dansyl-glu-gly-arg-chloromethylketone; competitive inhibitor of Factor IXa
ipsilateral accumulation of fibrin (immunoblot) (cross-linked fibrin): no apparent increase | procoagulant activity (Factor IXa): devoid of procoagulant activity | activated partial thromboplastin time (APTT) [1]: did not prolong | progressive coronary artery occlusion after electric current [1]: effective at preventing progressive coronary artery occlusion | APTT (Protime and APTT in mice): 79.9±8.9 | PT (protime) (Protime and APTT in mice): 13.4±0.7 | accumulation of radiolabelled platelets in the ipsilateral hemisphere [2]: significant reduction | apparent intracerebral hemorrhage (intracerebral hemorrhage; [4]): free of apparent intracerebral hemorrhage | ICH (spectrophotometric assay, corroborated by visual score) (intracerebral hemorrhage; highest dose tested, 1200 μg/kg): increase in ICH | ICH (spectrophotometric hemoglobin assay) (intracerebral hemorrhage; mouse, in vivo): no significant increase in ICH | cerebral infarction volume ([3]; 300 μg/kg given after MCA occlusion, following removal of the occluding suture, vs vehicle): significantly reduce cerebral infarction volumes | cerebral infarct volume ([3]; 300 μg/kg i.v. immediately prior to stroke, vs controls): smaller infarct volumes; also recorded: reduce cerebral infarct volumes | mortality [3, 4]: reduced mortality | neurological deficits [3, 4]: less neurological deficits | inf vol [3, 5]: 3.47 | occ dop 1 [3, 5]: 0.16 | occ dop 2 [3, 5]: 0.43 | reper dop [3, 5]: 0.53 | sac dop ([3]; Table II, Experimental group mean, at sacrifice): 0.75 | dopp ([3]; Table II, Experimental group mean, baseline relative doppler flow): 1.04 | grade ([3]; Table II, Experimental group mean, neurological grade): 1.67 | optimal dose (infarct volume dose-response) ([3]; doses 300, 600, 1200 μg/kg immediately prior to stroke): 0.6 mg/kg | I/C Ratio ([3]; mouse, in vivo): 1.08 | cerebral blood flow / perfusion at 24 hours ([3]; mouse, in vivo, iv): improved cerebral perfusion; also recorded: significant increase in CBF
